Results taken from US12390483B2, “Compounds and methods for treating neurological and cardiovascular conditions” (Astrocyte Pharmaceuticals, Inc., priority 2016, dated 2025).

Assay: Pharmacokinetics of MRS4322 following intraperitoneal administration to mice (plasma and brain concentrations)
Assay type: in vivo
Details: MRS4322 […] i.p.; for Plasma Concentration Mean / Plasma Concentration by Subject: BLQ = below 2.40 ng/mL; for Brain Concentration Mean / Brain Concentration by Subject: BLQ = below 9.64 ng/g; for Plasma Concentration by Subject / Brain Concentration by Subject: subjects A-C
Protocol: Animals: Female C576BL/6J mice weighing approximately 0.02 kg were used for this study, supplied by the University of Texas Health Sciences Center (San Antonio, TX). All studies were conducted under approved University of Texas Health Sciences Center IACUC protocols.
Drug Administration: MRS4322 was solubilized in DMSO and then diluted in saline to prepare dosing solution. Final dosing solution concentration of MRS4322 was 100 μM. A 100 μL volume of dosing solution was administered intraperitoneally to each mouse per 20 gram body weight; MRS4322 was administered intraperitoneally at 0.16 mg/kg or 0.5 μmol/kg. Three mice were administered MRS4322 for each sampling timepoint.
Tissue Sampling: Blood and brain samples were obtained at 0, 0.083, 0.25, 0.5, 1, 2 and 8 hours post-dose. At each timepoint, mice (3/timepoint) were euthanized in a […] chamber. Whole blood was obtained by cardiac puncture into Microtainer tubes containing heparin and immediately centrifuged for preparation of plasma; plasma was stored at −80° C. At each timepoint, whole brain samples were obtained by decapitation, rinsed in ice-cold phosphate-buffered saline and weighed. Brain samples were then immediately flash-frozen in liquid nitrogen and stored at −80° C.
The following table outlines the LC and MS/MS conditions employed:
The calibration range for the MRS4322 plasma concentration standard curve was 2.42-242 ng/mL. The calibration range for MRS4322 brain concentrations was 2.41-233 ng/mL.
For bioanalysis of brain concentrations of MRS4322, brain samples were homogenized in ice-cold phosphate-buffered saline in a 4× dilution. Aliquots of the resulting diluted brain homogenate were treated with acetonitrile and analyzed by LC-MS/MS. Because of the 4× homogenate dilution, the calibration range of the MRS4322 brain standard curve was translated to 9.64-932 ng/gm. In several samples, MRS4322 was detectable but fell below the brain LLOQ of 9.64 ng/gm but were above background; in these cases the final reported brain concentration was extrapolated based on MS peak heights.

Plasma Concentration Mean (0 h): BLQ | Brain Concentration Mean (0 h): BLQ | Plasma Concentration by Subject (0 h): BLQ | Brain Concentration by Subject (0 h): BLQ | Brain Concentration Mean (1 h): BLQ | Brain Concentration by Subject (1 h): BLQ | Brain Concentration Mean (2 h): BLQ | Brain Concentration by Subject (2 h): BLQ | Plasma Concentration Mean (8 h): BLQ | Brain Concentration Mean (8 h): BLQ | Plasma Concentration by Subject (8 h): BLQ | Brain Concentration by Subject (8 h): BLQ
Structure (SMILES): CSc1nc(N)c2ncn([C@H]3[C@H](O)[C@H](O)[C@]4(CO)C[C@H]34)c2n1 [MRS4322]
